Row | melting point | Compound
1 | 105 to 107 °C | O=C(c1ccccc1)c1cc2c(cc1Br)OCCCO2
2 | 68 to 70 °C | CC(=O)Nc1ccccc1OC(F)(F)F
3 | -60 °C | CCN(CC)c1ccccc1C
4 | 34 °C | CCCCN1C(=O)c2ccccc2C1=O
5 | 159 °C | CNCC(O)c1cccc(NS(C)(=O)=O)c1 (stereo not given)
6 | 114 to 116 °C | O=C1c2ccccc2OC(CCCl)N1O (stereo not given)
7 | 37 °C | CCOC(=O)Cc1ccccc1Br
8 | 200 °C | Brc1nc2ccccc2[nH]1
9 | 152 °C | COc1ccccc1C1Nn2c(nnc2-c2ccc([N+](=O)[O-])cc2)S1 (stereo not given)
10 | 192 to 194 °C | c1ccc(-c2nnc(NC3=NCCN3)s2)cc1
11 | 190 °C | CS(=O)(=O)c1nn(-c2ccccc2)c(N)c1C#N
12 | 72 to 74 °C | CCOC(CN1C(=O)c2ccccc2C1=O)OCC
13 | 217 °C | CCOC(=O)C1=C(C)NC(=O)NC1c1ccccc1Cl (stereo not given)
14 | 119 to 123 °C | O=C(c1ccccc1)N(O)c1ccccc1
15 | 177 °C | CC(=O)N1CCc2cc([N+](=O)[O-])ccc21
16 | 48 to 51 °C | O=S(=O)(Cl)c1ccc2c(c1)OCO2
17 | 62 °C | Brc1ccc(OCc2ccccc2)cc1
18 | 121 to 124 °C | COc1ccc2nc(-c3ccccc3)cc(Cl)c2c1
19 | 160 °C | O=[N+]([O-])c1ccc(N=Nc2ccc(Nc3ccccc3)cc2)cc1
20 | 190 °C | Cc1onc(-c2ccccc2Cl)c1C(=O)O
21 | 261 to 262 °C | O=[N+]([O-])c1ccc(NN=CC2=C(/C=C/c3ccccc3)CCCC2)c([N+](=O)[O-])c1
22 | 270 to 271 °C | COc1ccccc1-n1ncc2c(=O)[nH]cnc21
23 | 137 to 138 °C | O=C1CC(C(=O)OCc2ccccc2)N1 (stereo not given)
24 | 385 °C | O=C1c2ccccc2-c2ccc3c4c(ccc1c24)-c1ccccc1C3=O
25 | 147 to 150 °C | CC(C)S(=O)(=O)c1cnc(-c2ccccn2)nc1N
26 | 215 °C | COc1cnc(NS(=O)(=O)c2ccc(N)cc2)nc1
27 | 164 °C | Cc1c(Cl)cccc1C(=O)O
28 | 71 °C | Cc1cc(C)n(CN(Cc2ccccc2)Cn2nc(C)cc2C)n1

Further lines, the molecule ahead of its results:

Row | Compound | melting point
29 | COc1ccc2nnc(-c3ccc(C(F)(F)F)cc3)n2n1 | 142 °C
30 | O=C(O)c1ccc([N+](=O)[O-])cc1F | 174 °C
31 | CCCCCCCCCCSCCCCCCCCCC | 27 °C
32 | Cc1cccc([N+](=O)[O-])c1O | 70 °C
33 | Cc1nc2cc(O)ccc2s1 | 186 °C
34 | CC(C)(C)C(=O)C(=O)O | 90.5 °C
35 | NC(=S)Nc1ccc2c(c1)OCO2 | 198 to 200 °C
36 | COC(=O)c1cc(Cl)c(NC(C)=O)cc1OC | 155 °C
37 | O=C(C1=NOC2C(=O)N(c3ccc(Cl)cc3)C(=O)C12)c1ccc(Cl)cc1 (stereo not given) | 152 °C
38 | CCOC(=O)CC[C@H](NC(=O)c1ccc(N)cc1)C(=O)OCC | 141 °C
39 | COP(=S)(OC)Oc1ccc(Sc2ccc(OP(=S)(OC)OC)cc2)cc1 | 30.3 °C
40 | COc1ccc([N+](=O)[O-])cc1C(F)(F)F | 79 to 81 °C
41 | O=Cc1cc(F)ccc1Br | 54 °C
42 | C(=C(c1ccccc1)c1ccccc1)c1ccccc1 | 72.5 °C
43 | O=C=Nc1ccc(-c2cccs2)cc1 | 65 to 66 °C
44 | O=C(Cl)c1ccc(-c2csnn2)cc1 | 168 to 171 °C
45 | O=C1C(=Cc2ccc(N(CCCl)CCCl)cc2)SC(=S)N1CN(CCCl)CCCl | 106 °C
46 | O=C(C=Cc1ccccc1)C=Cc1ccccc1 | 111 °C
47 | OCc1ccc(Cl)nc1 | 48 °C
48 | CCCc1c(O)ccc(C(C)=O)c1N | 95 to 97 °C
49 | C=CCc1cc(OC)c(OC)c(OC)c1OC | 25 °C

Row | Compound | melting point
50 | Brc1cc(Br)c(Oc2c(Br)cc(Br)c(Br)c2Br)c(Br)c1Br | 206 °C
51 | CC(CCl)OP(=O)(OC(C)CCl)OC(C)CCl (stereo not given) | -40 °C
52 | OC(c1ccc(Cl)cc1)(c1ccc(Cl)cc1)c1ccc(Cl)cc1 | 95.5 °C
53 | COC(=O)c1cc2cc(Br)ccc2s1 | 110 to 111 °C
54 | CCCCCCCCCCCCCCCCCC(=O)OCC(O)CO (stereo not given) | 74 °C
55 | O=C(O)c1ccc(S)cc1 | 219 °C
56 | CCCCCCCC(=O)OC1CCC2(C)C(=CCC3C2CCC2(C)C(C(C)CCCC(C)C)CCC32)C1 (stereo not given) | 110 °C
57 | Cc1cccc2c1CCCC2 | -23 °C
58 | O=S1(=O)CC=C(Cl)C1 | 90 to 92 °C
59 | CNC(=O)C(C)SCCSP(=O)(OC)OC (stereo not given) | 43 °C
60 | COCC(=O)N(c1c(C)cccc1C)C(C)C(=O)OC (stereo not given) | 71 °C
61 | CCS(=O)(=O)O | -17 °C
62 | Brc1ccc2nsnc2c1 | 59 to 60 °C
63 | COc1cc(O)c(C=O)c(OC)c1 | 70 °C
64 | CC(O)C1(C)CCC2=C1CCC1C2CCC2(C)CC(O)CCC12C (stereo not given) | 205 to 207 °C
65 | NC(CSc1ncccc1C(F)(F)F)=NO | 161 to 164 °C
66 | CN(C)c1ccc(C=CC=O)cc1 | 140 °C
67 | NC(=S)c1ccc2c(c1)OCO2 | 183 to 186 °C
68 | C=CCNC(=O)OC(C)(C)C | 37 °C
69 | CCOP(=S)(Oc1ccc(C#N)cc1)c1ccccc1 (stereo not given) | 83 °C
70 | O=Cc1ccsc1Sc1ccc(Cl)cc1 | 57 to 60 °C

Row | Compound | melting point
71 | Cc1c(C)c2c(c3c1CC3)CC2 | 105 to 116 °C
72 | Cc1cc(C)c(C2Oc3c(Cl)c(Cl)c(Cl)c(Cl)c3O2)cc1C | 188 °C
73 | O=[N+]([O-])c1ccc(/C=N/n2c(S)nnc2C(F)(F)F)cc1 | 193 °C
74 | Nn1c(Cc2ccc(Cl)cc2)n[nH]c1=O | 181 °C
75 | O=C(CBr)c1ccc(C(F)(F)F)cc1 | 45 to 46 °C
76 | FC(F)(F)C(I)(C(F)(F)F)C(F)(F)F | 60 °C
77 | Sc1nc2cc(Cl)c(Cl)cc2[nH]1 | 300 °C
78 | CCO[Si](Cl)(Cl)Cl | -135 °C
79 | CC12CCC(C(=O)C1)C2(C)C (stereo not given) | 186 °C
80 | CC12CCC(C1(C)C)C(CC(Br)Cc1ccccc1)(C1(CC(Br)Cc3ccccc3)C(=O)C3(C)CCC1C3(C)C)C2=O (stereo not given) | 215 °C
81 | Nn1cnc2c(c(Br)nn2C2CCCCC2)c1=O | 253 to 254 °C
82 | CC1C(=O)C23C4CC5C(C)(C)CCC(=O)C56COC(CC1C2OC(C)(C)O4)C63 (stereo not given) | 252 °C
83 | Cc1nc2nn(C)cc2c(=O)n1N | 147 to 148 °C
84 | Cc1cc(C)c(CC(=O)c2cc3cc(Br)ccc3o2)c(C)c1 | 123 to 124 °C
85 | Nc1ccc(C(=O)NC(CCC(=O)O)C(=O)O)cc1 (stereo not given) | 173 °C
86 | Cn1c(C(=O)O)cc2sccc21 | 154 to 156 °C
87 | CC12CC(O)C3C(CCC4(O)CC(O)CC(O)C34CO)C1(O)CCC2C1=CC(=O)OC1 (stereo not given) | 236 °C
88 | O=C(O)c1cc2cc(Cl)cc(Cl)c2oc1=O | 198 to 200 °C
89 | CC(=O)O[C@@H]1CC[C@@]2(C)C(CC[C@@H]3[C@@H]2CC[C@@]2(C)[C@H]3CC[C@]2(O)/C=C/c2ccccc2)C1 (stereo not given in full) | 160 to 164 °C
90 | COc1ccc(C(N)=S)cn1 | 150 to 152 °C
